From US4609667A, “Inhibitor of mammalian collagenase and elastase” (American Home Products Corporation, priority 1985, dated 1986)

Key:
Assay type in all cases: biochemical
[1] = target: T1, human leukocyte elastase (Homo sapiens, UniProt P08246); experiment: human elastase inhibition in vitro assay, Method 2 (elastin-Congo red complex); conditions: 20 μg of compound; 37° C., 18 hours; Standard (complete hydrolysis by hog pancreatic elastase) 1.0; No Inhibitor 0.104
T1 construct: A crude elastase preparation is made by homogenizing human leukocyte granules; from tissue; host or cells: human leukocyte granules (homogenized, supernatant dialyzed; crude preparation)
T1 sequence (P08246 30-247 limits assumed): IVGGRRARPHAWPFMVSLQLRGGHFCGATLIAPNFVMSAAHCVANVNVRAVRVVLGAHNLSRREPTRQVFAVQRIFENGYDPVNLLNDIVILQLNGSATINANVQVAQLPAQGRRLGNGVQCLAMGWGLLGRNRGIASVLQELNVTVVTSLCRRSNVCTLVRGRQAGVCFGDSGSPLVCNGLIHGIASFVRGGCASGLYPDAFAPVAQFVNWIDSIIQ
Procedure: (§1) The compound N-[[5-chloro-2-benzothiazolyl)thio]-phenylacetyl]-L-cysteine is tested for human elastase inhibition in an in vitro assay which is carried out as follows:
(§2) A crude elastase preparation is made by homogenizing human leukocyte granules [prepared according to the method of R. J. Baryk and J. Travis, Biochemistry, 15, (4), 837 (1976)], spinning and dialyzing the supernates against cold 0.05 M trisHCl/0.05 M Na Cl at a pH 8.0.
(§3) This elastase preparation is used in two assay methods to test for elastase inhibition.
In this method, the substrate used is an elastin-Congo red complex. Hydrolysis of this substrate by elastase releases Congo red, which is assayed by HPLC. The assay system also contains buffer and either 20 μg of the compound of Example 1, or no compound. The system is incubated at 37° C. for 18 hours. The standard sample represents the complete hydrolysis of the elastin-Congo red complex by hog pancreatic elastase.

[2] = target: T1, human leukocyte elastase; experiment: human elastase inhibition in vitro assay, Method 1 (succinyl-L-alanyl-L-alanyl-L-alanyl-p-nitroanilide substrate)
Procedure: as §1, §2, §3
400 μl of the elastase preparation, 10 μl (0.0625 mg) of succinyl-L-alanyl-L-alanyl-L-alanyl-p-nitroanilide (the enzyme substrate), 207 μl of buffer and varying amounts of the elastase inhibitor under testing are incubated at 37° C. for 19 hours. The hydrolysis is measured by use of high pressure liquid chromatography (HPLC) or by the spectrophotometric measurement of the release of p-nitroaniline at a wavelength of 410 nm.

[3] = target: Collagenase produced by normal human leukocytes or by normal human skin fibroblasts; experiment: in vitro collagenase inhibition assay (14C-acetylated collagen hydrolysis); conditions: pH 7.4, 35° C., one to five hours
Procedure: The compound N-[[(5-chloro-2-benzothiazolyl)thio]-phenylacetyl]-L-cysteine is tested for collagenase inhibition in an in vitro assay based on the procedure described by A. Sellers and J.J. Reynolds, Biochem. J., 167 (1977) pp. 353-60.
Collagenase produced by normal human leukocytes or by normal human skin fibroblasts in cell cultures is purified by adsorption onto a collagen Sepharose 4B column. Prior to use in the assay, the zymogen is activated with trypsin, while the trypsin in turn, is inactivated with an excess of soybean trypsin inhibitor.
According to the assay procedure, microfuge tubes are prepared containing a total of about 150 μl. of solution containing: 25 μl. collagen (^14 C-acetylated collagen--2 mg./ml in 0.01% acetic acid); 25 μl. of 0.15 M tris/0.015 M CaCl2, pH 7.4; 75 μl. collagenase in tris buffer (0.05 M tris/0.005 M CaCl2, pH 7.4); and 25 μl. of collagenase inhibitor in tris buffer. Samples and controls are incubated at 35° C. for one to five hours depending upon potency of the enzyme. At the end of the reaction period, the tubes are spun down in a Beckman Microfuge. A 25 μl. aliquot of each tube is then assayed in a scintillation counter. Since native collagen forms insoluble fibrils under these conditions, radioactivity detected in the supernate is a measure of collagen hydrolysis. […]

Relative Release of Congo Red [1]: 0.000
IC50 ([2]; 37° C., 19 hours, HPLC or 410 nm): 4.78 µM
inhibitory effect on the enzymatic activity of human leukocyte elastase (in words) ([2]; conclusion from Methods 1 and 2): strong inhibitory effect
IC50 ([3]; Experiment 1: Collagen I as substrate): 5.7 µM
IC50 ([3]; Experiment 2: Collagen II as substrate): 12.5 µM
Compound: O=C(N[C@@H](CS)C(=O)O)C(Sc1nc2cc(Cl)ccc2s1)c1ccccc1 (stereo partly drawn) [Example 1, N-[[(5-chloro-2-benzothiazolyl)thio]phenylacetyl]-L-cysteine]
